Earlier results in US20130115246A1 (Lupin Atlantis Holdings, S.A., priority 2011, published 2013).

Settings: in vivo

- elimination half-life: about 20 hours
Compound: CC(C)(Oc1ccc(C(=O)c2ccc(Cl)cc2)cc1)C(=O)O [Fenofibric acid]
